pIC50: −log10 of the molar value.
Test system: A498 complex spheroids with HUVEC/MSC, growth
Assay: Anticancer human tumor A498 cell line growth inhibition [AhR];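 further: seven day exposure starting three days after spheroid seeding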;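 on viability, T/C: luminescence signal used as a surrogate for viable cells; luminescence viability scaled so 100% equals DMSO vehicle wells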
Conditions: for pIC50: curve of first compound; for viability, T/C: stronger effect = lower value; active means viability on the fitted dose curve at most 10% of control; inactive means the rest
Procedure, shortened: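 Spheroids combined tumor cells with HUVEC endothelial cells and human MSCs as stroma. AhR antagonists were paired with standard or investigational drugs, each dosed in half-log steps down from near clinical Cmax, or from 10 microM where Cmax was unknown.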

[1] = second compound 0.1 µM, first compound 0.000949 µM
[2] = second compound 0.1 µM, first compound 0.003 µM
[3] = second compound 0.1 µM, first compound 0.00949 µM
[4] = second compound 0.1 µM, first compound 0.03 µM
[5] = second compound 0.1 µM, first compound 0.0949 µM
[6] = second compound 0.1 µM, first compound 0.3 µM
[7] = second compound 0.316 µM, first compound 0.000949 µM
[8] = second compound 0.316 µM, first compound 0.003 µM
[9] = second compound 0.316 µM, first compound 0.00949 µM
[10] = second compound 0.316 µM, first compound 0.03 µM
[11] = second compound 0.316 µM, first compound 0.0949 µM
[12] = second compound 0.316 µM, first compound 0.3 µM
[13] = second compound 1 µM, first compound 0.000949 µM
[14] = second compound 1 µM, first compound 0.003 µM
[15] = second compound 1 µM, first compound 0.00949 µM
[16] = second compound 1 µM, first compound 0.03 µM
[17] = second compound 1 µM, first compound 0.0949 µM
[18] = second compound 1 µM, first compound 0.3 µM
[19] = second compound 3.16 µM, first compound 0.000949 µM
[20] = second compound 3.16 µM, first compound 0.003 µM
[21] = second compound 3.16 µM, first compound 0.00949 µM
[22] = second compound 3.16 µM, first compound 0.03 µM
[23] = second compound 3.16 µM, first compound 0.0949 µM
[24] = second compound 3.16 µM, first compound 0.3 µM
[25] = second compound 10 µM, first compound 0.000949 µM
[26] = second compound 10 µM, first compound 0.003 µM
[27] = second compound 10 µM, first compound 0.00949 µM
[28] = second compound 10 µM, first compound 0.03 µM
[29] = second compound 10 µM, first compound 0.0949 µM
[30] = second compound 10 µM, first compound 0.3 µM

CC(C)CC(NC(=O)C(Cc1ccccc1)NC(=O)c1cnccn1)B(O)O (stereo not given) + Cc1cncc(-c2nc(NCCc3c[nH]c4ccccc34)c3ncn(C(C)C)c3n2)c1
8.29: pIC50 (second compound 0.316 µM)
inactive: viability, T/C [1] 91% | viability, T/C [2] 79.8% | viability, T/C [7] 95.5% | viability, T/C [8] 88.7% | viability, T/C [13] 88.2% | viability, T/C [14] 79.1% | viability, T/C [19] 62.5% | viability, T/C [20] 54.9%
active: viability, T/C [3] 5.02% | viability, T/C [4] 1.12% | viability, T/C [5] 0.37% | viability, T/C [6] 0.34% | viability, T/C [9] 4.18% | viability, T/C [10] 1.1% | viability, T/C [11] 0.36% | viability, T/C [12] 0.3% | viability, T/C [15] 4.22% | viability, T/C [16] 0.83% | viability, T/C [17] 0.33% | viability, T/C [18] 0.36% | viability, T/C [21] 3.44% | viability, T/C [22] 0.63% | viability, T/C [23] 0.22% | viability, T/C [24] 0.3% | viability, T/C [25] 5.04% | viability, T/C [26] 3.31% | viability, T/C [27] 0.4% | viability, T/C [28] 0.14% | viability, T/C [29] 0.15% | viability, T/C [30] 0.22%
> 9.02: pIC50 (second compound 10 µM)
8.32: pIC50 (second compound 0.1 µM)
8.48: pIC50 (second compound 3.16 µM)
8.33: pIC50 (second compound 1 µM)

CCc1c2c(nc3ccc(O)cc13)-c1cc3c(c(=O)n1C2)COC(=O)[C@]3(O)CC + Cc1cncc(-c2nc(NCCc3c[nH]c4ccccc34)c3ncn(C(C)C)c3n2)c1
inactive: viability, T/C [1] 78.1% | viability, T/C [2] 81.4% | viability, T/C [3] 70.2% | viability, T/C [4] 51% | viability, T/C [5] 39.1% | viability, T/C [6] 35.3% | viability, T/C [7] 85.7% | viability, T/C [8] 76% | viability, T/C [9] 67.1% | viability, T/C [10] 52.7% | viability, T/C [11] 36.7% | viability, T/C [12] 35.2% | viability, T/C [13] 77.1% | viability, T/C [14] 72.8% | viability, T/C [15] 66.8% | viability, T/C [16] 45.4% | viability, T/C [17] 32.4% | viability, T/C [18] 29.1% | viability, T/C [19] 50.7% | viability, T/C [20] 53.5% | viability, T/C [21] 58.1% | viability, T/C [22] 42% | viability, T/C [23] 29.1% | viability, T/C [24] 26.3%
7.63: pIC50 (second compound 1 µM)
7.47: pIC50 (second compound 0.316 µM)
7.48: pIC50 (second compound 0.1 µM)
> 9.02: pIC50 (second compound 10 µM)
7.85: pIC50 (second compound 3.16 µM)
active: viability, T/C [25] 5.42% | viability, T/C [26] 4.3% | viability, T/C [27] 6.41% | viability, T/C [28] 7.12% | viability, T/C [29] 5.73% | viability, T/C [30] 4.65%

COc1cc(Nc2ncc3c(n2)-c2ccc(Cl)cc2C(c2c(F)cccc2OC)=NC3)ccc1C(=O)O + Cc1cncc(-c2nc(NCCc3c[nH]c4ccccc34)c3ncn(C(C)C)c3n2)c1
6.04: pIC50 (second compound 1 µM)
5.84: pIC50 (second compound 0.1 µM)
5.75: pIC50 (second compound 0.316 µM)
inactive: viability, T/C (second compound 0.1 µM, first compound 0.0316 µM) 68.9% | viability, T/C (second compound 0.1 µM, first compound 0.1 µM) 72% | viability, T/C (second compound 0.1 µM, first compound 0.316 µM) 64% | viability, T/C (second compound 0.1 µM, first compound 1 µM) 51.5% | viability, T/C (second compound 0.1 µM, first compound 3.16 µM) 44.2% | viability, T/C (second compound 0.1 µM, first compound 10 µM) 32.4% | viability, T/C (second compound 0.316 µM, first compound 0.0316 µM) 71.9% | viability, T/C (second compound 0.316 µM, first compound 0.1 µM) 67.8% | viability, T/C (second compound 0.316 µM, first compound 0.316 µM) 69.6% | viability, T/C (second compound 0.316 µM, first compound 1 µM) 54% | viability, T/C (second compound 0.316 µM, first compound 3.16 µM) 45.3% | viability, T/C (second compound 0.316 µM, first compound 10 µM) 35% | viability, T/C (second compound 1 µM, first compound 0.0316 µM) 71.2% | viability, T/C (second compound 1 µM, first compound 0.1 µM) 71.4% | viability, T/C (second compound 1 µM, first compound 0.316 µM) 62.4% | viability, T/C (second compound 1 µM, first compound 1 µM) 47.4% | viability, T/C (second compound 1 µM, first compound 3.16 µM) 41.4% | viability, T/C (second compound 1 µM, first compound 10 µM) 33.4% | viability, T/C (second compound 3.16 µM, first compound 0.0316 µM) 56.9% | viability, T/C (second compound 3.16 µM, first compound 0.1 µM) 58% | viability, T/C (second compound 3.16 µM, first compound 0.316 µM) 52.2% | viability, T/C (second compound 3.16 µM, first compound 1 µM) 42.3% | viability, T/C (second compound 3.16 µM, first compound 3.16 µM) 35.3% | viability, T/C (second compound 3.16 µM, first compound 10 µM) 30.5%
active: viability, T/C (second compound 10 µM, first compound 0.0316 µM) 4.64% | viability, T/C (second compound 10 µM, first compound 0.1 µM) 6.08% | viability, T/C (second compound 10 µM, first compound 0.316 µM) 4.95% | viability, T/C (second compound 10 µM, first compound 1 µM) 4.83% | viability, T/C (second compound 10 µM, first compound 3.16 µM) 4.84% | viability, T/C (second compound 10 µM, first compound 10 µM) 6.67%
6.38: pIC50 (second compound 3.16 µM)
> 7.50: pIC50 (second compound 10 µM)
